Experimental data reported in patent US20140315786A1, “USE OF INTRACELLULAR ENZYMES FOR THE RELEASE OF COVALENTLY LINKED BIOACTIVES” (Catabasis Pharmaceuticals, Inc., priority 2011, published 2014).

Test system: IL-1β
Assay: IL-1β transcript levels in LPS-stimulated RAW264.7 macrophages
Format: cell-based
Details: Mus musculus; RAW264.7, LPS 100 ng/ml; linked bioactive
Protocol: RAW264.7 macrophages were seeded at a density of 100,000 cells/well in a 96-well plate in DMEM supplemented with 10% FBS and penicillin:streptomycin. 16 hours later, medium was aspirated and replaced with 90 μL/well of serum-free DMEM. Linked bioactives were brought up in 100% ethanol to a concentration of 100 mM and then diluted 1:100 in 100% FBS for a stock solution consisting of 1 mM compound and 1% ethanol. These stock solutions were then diluted 1:10 in FBS supplemented with 1% ethanol to generate a 100 μM of the linked bioactives. 10 μL was then added to the RAW246.7 cells to generate final concentrations 10 μM of the linked bioactives or 10 μM each bioactive, along with vehicle only control. The linked bioactives were allowed to pre-incubate for 2 hours before stimulation of 100 ng/ml LPS (10 μL of 1 μg/ml LPS was added to each well). Following 3 hours of LPS stimulation, cells were washed once in 1×PBS, aspirated dry, and flash frozen in liquid nitrogen. RNA was then isolated and converted to cDNA using the Cells to cDNA kit (AMBION®) according to the manufacturer's protocol. IL-1β transcript levels were then measured using Taqman primer/probe assay sets (APPLIED BIOSYSTEMS®), normalized to GAPDH using the deltaCt method, and the data expressed relative to vehicle only control.

CC/C=C\C/C=C\C/C=C\C/C=C\C/C=C\C/C=C\CCC(=O)N[C@@H](C)C(=O)O[C@H](C)[C@H](NC(=O)CC/C=C\C/C=C\C/C=C\C/C=C\C/C=C\C/C=C\CC)C(=O)OC [VI-2, (2S,3R)-2-((4Z,7Z,10Z,13Z,16Z,19Z)-docosa-4,7,10,13,16,19-hexaenoylamino)-3-[(S)-2-((4Z,7Z,10Z,13Z,16Z,19Z)-docosa-4,7,10,13,16,19-hexaenoylamino)-propionyloxy]-butyric acid methyl ester]
IC50: 10 µM
